Results published in ChEMBL document CHEMBL5370600, “Oxindole and Benzoxazinone Alkaloids from the Seeds of Persea americana (Avocado) and Their SIRT1 Stimulatory Activity” (J Nat Prod, 2023).
Calls of active or inactive are those of the source. The calls are words filed in the database; no cut-off is given here.

How the values were obtained:
[1] = biological target: T1, NAD-dependent protein deacetylase sirtuin-1 (Homo sapiens) (UniProt Q96EB6); assay: Activation of SIRT1 deacetylation (unknown origin) transfected in HEK293 cells cotransfected with PG13-Luc/myc-tagged p53/flag-tagged Sirt1/RSV-beta-galactosidase assessed as decrease in luciferase activity at 10 uM incubated for 24 hrs by firefly luciferase assay; type: cell-based
T1 sequence (whole entry): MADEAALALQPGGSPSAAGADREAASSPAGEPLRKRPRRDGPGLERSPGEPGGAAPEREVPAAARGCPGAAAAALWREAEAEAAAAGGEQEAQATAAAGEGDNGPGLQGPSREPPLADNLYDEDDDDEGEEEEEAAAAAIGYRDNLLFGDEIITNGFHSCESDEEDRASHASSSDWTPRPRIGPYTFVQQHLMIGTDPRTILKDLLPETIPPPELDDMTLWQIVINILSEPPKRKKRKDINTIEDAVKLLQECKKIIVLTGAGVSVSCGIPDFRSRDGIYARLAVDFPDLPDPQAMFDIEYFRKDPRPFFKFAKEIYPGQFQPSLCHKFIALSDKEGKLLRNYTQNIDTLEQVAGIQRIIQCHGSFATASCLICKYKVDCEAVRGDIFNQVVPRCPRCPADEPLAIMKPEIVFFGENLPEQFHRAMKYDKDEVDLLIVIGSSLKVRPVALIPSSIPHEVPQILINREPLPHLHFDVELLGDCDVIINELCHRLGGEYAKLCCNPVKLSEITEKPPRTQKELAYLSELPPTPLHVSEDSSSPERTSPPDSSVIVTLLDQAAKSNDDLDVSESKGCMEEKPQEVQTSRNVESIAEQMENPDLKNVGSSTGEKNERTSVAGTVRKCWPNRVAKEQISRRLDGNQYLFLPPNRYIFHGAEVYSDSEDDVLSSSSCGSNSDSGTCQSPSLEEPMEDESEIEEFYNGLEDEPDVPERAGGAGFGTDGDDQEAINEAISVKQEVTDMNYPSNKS

[2] = biological target: T1, NAD-dependent protein deacetylase sirtuin-1 (Homo sapiens); assay: Activation of SIRT1 deacetylation (unknown origin) transfected in HEK293 cells cotransfected with PG13-Luc/myc-tagged p53/flag-tagged Sirt1/RSV-beta-galactosidase assessed as decrease in luciferase activity at 20 uM incubated for 24 hrs by firefly luciferase assay relative to control; type: cell-based; parameters: scale not given: the % may be the effect or the level left; settings: filed as activator
HEK293 = assay: Cytotoxicity against HEK293 cells at 20 uM incubated for 24 hrs by MTT assay; type: toxicity, cell-based; settings: human, hek293, 24 h
[3] = biological target: T1, NAD-dependent protein deacetylase sirtuin-1 (Homo sapiens); assay: Activation of SIRT1 deacetylation (unknown origin) in flag tagged Sirt1 overexpressed HEK293 cells assessed as increase in NAD+/NADH ratio incubated for 12 hrs by fluorescence microplate reader analysis; type: cell-based; settings: filed as activator, dose 10-20 µM
[4] = biological target: T1, NAD-dependent protein deacetylase sirtuin-1 (Homo sapiens); assay: Activation of SIRT1 deacetylation (unknown origin) transfected in HEK293 cells cotransfected with PG13-Luc/myc-tagged p53/flag-tagged Sirt1/RSV-beta-galactosidase assessed as decrease in luciferase activity incubated for 24 hrs by firefly luciferase assay; type: cell-based; settings: filed as activator, dose 10-20 µM

SMILES | Activity (HEK293) | other results
O=C(C[C@H]1C(=O)Nc2ccccc21)OC[C@H]1O[C@@H](OCCc2ccc(O)cc2)[C@H](O)[C@@H](O)[C@@H]1O | Non-Toxic | Activity [1]: inactive; Activity [2]: 65%
O=C(C[C@@H]1C(=O)Nc2ccccc21)OC[C@H]1O[C@@H](OCCc2ccc(O)cc2)[C@H](O)[C@@H](O)[C@@H]1O | Non-Toxic | Activity ([1]; filed as activator): Active; Activity [2]: 45%; Activity [3]: Dose-Dependent Effect; Activity [4]: Dose-Dependent Effect
O=C(C[C@@]1(O)C(=O)Nc2ccccc21)OC[C@H]1O[C@@H](OCCc2ccc(O)cc2)[C@H](O)[C@@H](O)[C@@H]1O | Non-Toxic | 
O=C(/C=C1/C(=O)Nc2ccccc21)OC[C@H]1O[C@@H](OCCc2ccc(O)cc2)[C@H](O)[C@@H](O)[C@@H]1O | Non-Toxic | 
O=C(C[C@@H]1C(=O)Nc2ccccc21)OC[C@H]1O[C@@H](OCCc2ccc(O)c(O)c2)[C@H](O)[C@@H](O)[C@@H]1O | Non-Toxic | 
CC1=CC[C@@H](C(C)(C)O[C@@H]2O[C@H](CO)[C@@H](O)[C@H](O)[C@H]2O)CC1 | Non-Toxic | 
CO[C@]1(CC(=O)OC[C@H]2O[C@@H](OCCc3ccc(O)cc3)[C@H](O)[C@@H](O)[C@@H]2O)OC(=O)Nc2ccccc21 | Non-Toxic | 
O=C(C[C@]1(O)C(=O)Nc2ccccc21)OC[C@H]1O[C@@H](OCCc2ccc(O)cc2)[C@H](O)[C@@H](O)[C@@H]1O | Non-Toxic | 
CO[C@@]1(CC(=O)OC[C@H]2O[C@@H](OCCc3ccc(O)cc3)[C@H](O)[C@@H](O)[C@@H]2O)OC(=O)Nc2ccccc21 | Non-Toxic | 
O=C(C[C@H]1C(=O)Nc2ccccc21)OC[C@H]1O[C@@H](OCCc2ccc(O)c(O)c2)[C@H](O)[C@@H](O)[C@@H]1O | Non-Toxic | 
OC[C@@H](O)[C@@H](O)[C@H](O)[C@H](O)[C@@H](O)CO | Non-Toxic | 
